This passage reports IC50 and inhibition results from ChEMBL document CHEMBL1133826, “Design, synthesis, and biological activity of diiminoisoindolines as complement component 3a antagonists” (Bioorg Med Chem Lett, 2001).

Each structure is given as a SMILES string.

In test [1] the target is T1, C3a anaphylatoxin chemotactic receptor (Homo sapiens, UniProt Q16581).
T1 sequence (Q16581 whole entry): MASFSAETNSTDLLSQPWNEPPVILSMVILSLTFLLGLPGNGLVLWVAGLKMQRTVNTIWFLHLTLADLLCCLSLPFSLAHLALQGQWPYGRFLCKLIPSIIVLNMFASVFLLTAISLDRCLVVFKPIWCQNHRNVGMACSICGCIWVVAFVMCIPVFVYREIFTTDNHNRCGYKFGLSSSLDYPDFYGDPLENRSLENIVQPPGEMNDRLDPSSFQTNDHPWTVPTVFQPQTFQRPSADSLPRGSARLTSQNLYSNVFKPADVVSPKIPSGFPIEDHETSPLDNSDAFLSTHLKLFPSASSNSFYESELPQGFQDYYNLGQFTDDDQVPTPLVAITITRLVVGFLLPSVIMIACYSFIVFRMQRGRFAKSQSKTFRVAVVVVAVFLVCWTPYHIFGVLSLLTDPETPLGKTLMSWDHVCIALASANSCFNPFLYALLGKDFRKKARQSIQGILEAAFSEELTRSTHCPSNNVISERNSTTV
The test can be described thus: Concentration required to inhibit complement component 3a (C3a) binding to C3a receptor in human neutrophil based assay; Not active at 25 uM.

The target in test [2] is T1, C3a anaphylatoxin chemotactic receptor. The test can be described thus: Inhibition of complement component 3a (C3a) binding to C3a receptor in human neutrophil based assay.
The species named for test [3] is Homo sapiens. Description: Percent inhibition against C3a receptor induced calcium mobilization in human neutrophil at the dose of 25 uM. In kind it is functional.
The species named for test [4] is Homo sapiens. The test can be described thus: Concentration required for 50% inhibition of binding against C3a receptor induced calcium mobilization in human neutrophil. It counts as functional, organism-based.
Test [5] concerns Rattus norvegicus. The test can be described thus: Percent inhibition against C3a receptor induced wheal formation in rat at the dose of 15 mg/Kg administered orally.
For test [6], the system named is Rattus norvegicus. Description: Percent inhibition against C3a receptor induced wheal formation in rat at the dose of 30 mg/Kg administered orally.
The test system of test [7] is Rattus norvegicus. Description: Percent inhibition against C3a receptor induced wheal formation in rat at the dose of 30 mg/Kg administered intraperitoneally.
Test [8] is filed under the species Homo sapiens. Description: Inhibitory concentration against C3a receptor induced chemotaxis in human eosinophils; Not active at 25 uM. It counts as functional, organism-based.
The species entered for test [9] is Homo sapiens. Description: Inhibitory concentration against C3a receptor induced chemotaxis in human eosinophils. In kind it is functional, organism-based.
For test [10], the species on record is Homo sapiens. Description: Percent inhibition against C3a receptor induced chemotaxis in human eosinophils at the dose of 25 uM. In kind it is functional.

For the compound `Fc1ccc(CC/N=C2\N=C(NCCc3ccc(F)cc3)c3nccnc32)cc1`, the IC50 result in test [1] was “Not Active”.

The compound `CC(C)NC1=N/C(=N\CCc2ccc(Cl)cc2)c2ccccc21` came in with a half-maximal inhibitory concentration (IC50) in [2] of 8.45 µM.

On to `N=C1N=C(NCCc2ccc(Cl)cc2)c2ccccc21`, for which the 50% inhibitory concentration (IC50) result in test [1] was “Not Active”.

On to `CC(C/N=C1\N=C(NCC(C)c2ccc(Cl)cc2)c2ccccc21)c1ccc(Cl)cc1` (stereo unspecified), for which the inhibition at 25 µM in the test filed under Homo sapiens [3] came out at 69%. The same compound gave an IC50 in test [2] of 5.9 µM.

For `Clc1cccc(CC/N=C2\N=C(NCCc3cccc(Cl)c3)c3ccccc32)c1`, the values for the IC50 (in the test filed under Homo sapiens [4]; in the test listed under Homo sapiens [8]; in [2]) were 5.4 µM, “Not Active” and 7.48 µM, respectively. Besides, the inhibition in the test on Rattus norvegicus [5] came to 28%; with Rattus norvegicus [6], 55%; in the test with Rattus norvegicus [7], 72%.

On to `Fc1ccc(CC/N=C2\N=C(NCCc3ccc(F)cc3)c3ccccc32)cc1`, for which the figures for the 50% inhibitory concentration (IC50) (in the test filed under Homo sapiens [9]; in the test listed under Homo sapiens [4]; in [2]) were 6.5 µM, 3.1 µM and 11.4 µM, respectively. In addition, the inhibition with Rattus norvegicus [5] came to 44%; in the test on Rattus norvegicus [6], 72%; in the test on Rattus norvegicus [7], 73%.

As for `CN(C)CCOc1ccc2c(c1)/C(=N/CCc1ccc(F)cc1)N=C2NCCc1ccc(F)cc1`, the IC50 in the test listed under Homo sapiens [9] was found to be 7.8 µM; in test [2], 5.36 µM.

As to `Cc1ccc(C/N=C2\N=C(NCc3ccc(C)cc3)c3cc([N+](=O)[O-])ccc32)cc1`, the IC50 entry in [1] was “Not Active”.

`Fc1ccc(CC/N=C2\N=C(NCCc3ccc(F)cc3)c3cnccc32)cc1` gave an IC50 in test [2] of 13.4 µM.

`CC(C)/N=C1\N=C(NC(C)C)c2ccccc21`: in [1], the half-maximal inhibitory concentration (IC50) entry is “Not Active”.

For the compound `Cc1ccc(CC/N=C2\N=C(NCCc3ccc(C)cc3)c3ccccc32)cc1`, the IC50 in the test filed under Homo sapiens [9] is 6.5 µM; in the test filed under Homo sapiens [4], 3.3 µM; in test [2], 6.14 µM. Moreover, the inhibition in the test with Rattus norvegicus [6] turned out to be 67%; with Rattus norvegicus [7] it was 38%.

On to `Cc1ccc(C/N=C2\N=C(NCc3ccc(C)cc3)c3ccccc32)cc1`, for which the IC50 was 2 µM in the test listed under Homo sapiens [4] and 1.7 µM in test [2]. The inhibition turned out to be 30% in the test on Rattus norvegicus [5], 61% in the test on Rattus norvegicus [6] and 64% in the test on Rattus norvegicus [7].

In test [2], `CC(=O)Nc1ccc2c(c1)/C(=N\Cc1ccc(C)cc1)N=C2NCc1ccc(C)cc1` came in with an IC50 of 32 µM.

`Cc1ccc(CC/N=C2\N=C(NCCc3ccc(C)cc3)c3cc(Cl)c(Cl)cc32)cc1` displayed a concentration for half-maximal inhibition (IC50) in test [2] of 48 µM.

With `CCCOc1ccc2c(c1)/C(=N/CCc1ccc(F)cc1)N=C2NCCc1ccc(F)cc1`, the 50% inhibitory concentration (IC50) in the test filed under Homo sapiens [9] came out at 6.1 µM; in test [2], 5.97 µM. Also, the inhibition at 25 µM in the test listed under Homo sapiens [3] was 79%.

`COc1ccc2c(c1)/C(=N/CCc1ccc(C)cc1)N=C2NCCc1ccc(C)cc1`: the values for the half-maximal inhibitory concentration (IC50) (in the test filed under Homo sapiens [4]; in test [2]) were 3.8 µM and 12.6 µM, respectively. For the same compound, in the test listed under Homo sapiens [10], the inhibition at 25 µM was determined as 37%.

Consider `Cc1ccc(CC/N=C2/CCC(NCCc3ccc(C)cc3)=N2)cc1`, for which, in test [1], the IC50 entry is “Not Active”.

For the compound `Clc1ccc(CC/N=C2\N=C(NCCc3ccc(Cl)cc3)c3ccccc32)cc1`, the IC50 in the test listed under Homo sapiens [9] is 10.2 µM; in the test filed under Homo sapiens [4], 8.2 µM; in test [2] it was 7.16 µM. Also, the inhibition with Rattus norvegicus [6] turned out to be 63%; in the test on Rattus norvegicus [7], 26%.
